The test system of the test is Collagen-induced arthritis (CIA). The test can be described thus: Rat collagen induced arthritis, combination dosing with Methotrexate. The format is in vivo. How it is done:
Immunization and Challenge: Female Lewis rats were immunized on day 0 and challenged on day 7 with cII from bovine nasal mixed with Freund's incomplete adjuvant at a final collagen concentration of 1.0 mg/ml. The animals were injected at the base of the tail with 400 μg of cII. Combination Dosing Regimen: Rats were dosed with the compound of Formula I (3.0 and 10 mg/kg, p.o., bi.d.) or Methotrexate (MTX, 0.1 and 0.2 mg/kg, p.o., q.d.) as monotherapy or in combinations consisting of each dose of the compound of Formula I with each dose of MTX starting on day 6 and continuing through day 21. Joint Pathology Ankle joint swelling was measured to the nearest 0.01 mm by using electronic digital calipers. Measurements were recorded 7 times throughout the study starting on day 6 and ending on day 21. Body weights were recorded on the same days. On day 21, hind paws were removed at the hairline just above the ankle and fixed in 10% neutral buffered formalin. MicroCT analysis: Ankle joints were examined using a cone-beam μCT scanner. A scout view scan was obtained first for selection of the examination volume of the specimens, followed by positioning, measurement and computational reconstruction. In ankle joints, the ratio of bone surface to bone volume, describing the complexity of bone surface in a certain volume, was analyzed. Statistical Analysis For joint swelling/inflammation, data were analyzed using Everstat v.5 software and a 2-way repeated measure ANOVA with Dunnett's post test. MicroCT data were analyzed by Everstat using a 1-way ANOVA and Newman-Keuls multiple comparison test.

With `CN(Cc1cnc2nc(N)nc(N)c2n1)c1ccc(C(=O)N[C@@H](CCC(=O)O)C(=O)O)cc1` [MTX, Methotrexate, reference compound], the “bone erosion, MicroCT” value by setting is: (MTX 0.1 mg/kg monotherapy) “effect was not seen”; (MTX 0.2 mg/kg po qd monotherapy) “significant decrease in bone erosion”.

(Values after patent US8658649B2, “Kinase inhibitor” (Sanofi, priority 2006, dated 2014).)
